This is an account of results in the METLIN SMRT retention time set (Domingo-Almenara et al. 2019).

Each structure is given as a SMILES string.

The data set can be described thus: gradient 5% acetonitrile 3 min, to 50% in 2 min, to 85% in 15 min, held 3 min, 100 µL/min. Particulars: column: Zorbax Extend-C18 2.1 x 50 mm; eluents: water / acetonitrile, 0.1% formic acid. The procedure, abridged:
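Values are retention times taken from adduct peaks that software picked and an analyst inspected. The pure standards were run as mixtures of ~100 molecules on HPLC linked to a quadrupole time-of-flight mass spectrometer, in positive and negative ionization mode. A Zorbax Extend-C18 column (2.1 × 50 mm, 1.8 μm) was used at 100 μL/min with water and acetonitrile, each including 0.1% formic acid.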
In turn, `CCc1ccc(OCC(=O)Nc2cnn(C)c(=O)c2N2CCOCC2)cc1` showed an RP-LC retention time of 889 s.

As for `O=C(CSc1cc(N2CCN(c3ccccc3F)CC2)ncn1)NCc1ccccc1`, the RP-LC retention time was 1110 s.

The compound `CC1(C)CC(=O)C2=C(C1)N=C1SCCC(=O)N1C2c1ccc(Cl)cc1` (centres undefined) gave an RP-LC retention time of 877 s.

As to `COc1cccc(-c2noc(CN3C(=O)COc4cc(Cl)ccc43)n2)c1`, the RP-LC retention time is 1090 s.

In turn, `CC(=O)N1c2ccc(S(=O)(=O)N3CCCCC3)cc2CC1C(=O)NCCN1CCCCCC1` (centres undefined) came in with an RP-LC retention time of 639 s.

`CCn1c(=O)c(=O)n(CC(=O)NCCN2CCCC2)c2cccnc21` came in with an RP-LC retention time of 559 s.

`Cc1cccc(Cn2c(CN3CCC(C(=O)NCCc4ccco4)CC3)cc3ccccc32)c1` gave an RP-LC retention time of 800 s.

In turn, `CCCCN1C(=O)c2cc(S(=O)(=O)Nc3ccccc3C)ccc2Oc2cccnc21` displayed an RP-LC retention time of 1130 s.

`COCc1cc(=O)n(CC(=O)Nc2ccc(Br)cc2)c(N2CCOCC2)n1` registered an RP-LC retention time of 892 s.

As for `NC(=O)C1(c2ccccc2Cl)CC1`, the RP-LC retention time worked out at 692 s.

`O=C(CN1C(=O)CN(C(=O)Nc2ccccc2)c2ccccc21)N1CCCc2ccccc21` yielded an RP-LC retention time of 940 s.

As for `CN1CCCCCCN(C(=O)C2(c3ccccc3)CC2)[C@H]2CCC[C@H]2C1=O`, the RP-LC retention time stood at 958 s.

Regarding `Cc1cc(Cn2cnc3c2C[C@@H](C(=O)O)N(C(=O)C(c2ccccc2)c2ccccc2)C3)ccc1N`, the RP-LC retention time amounted to 700 s.

In turn, `O=C(Cn1nc2n(c1=O)CCCCC2)Nc1ccc(Br)cc1` returned an RP-LC retention time of 726 s.

As for `COCCC1CCN(C(=O)CC2CCN(C(C)=O)CC2)CC1`, the RP-LC retention time amounted to 626 s.

Take `CC(C)(C)NC(=O)N1CCC(CNC(=O)c2ccccn2)CC1`: the RP-LC retention time worked out at 644 s.

Compound `CCn1c(=O)oc2cc(S(=O)(=O)N3CCN(C(=O)C4(c5ccccc5)CC4)CC3)ccc21` came in with an RP-LC retention time of 848 s.

As for `Cc1ccc(-c2nc3nc(C)cc(C)n3c2Nc2cccc(C(F)(F)F)c2)cc1`, the RP-LC retention time came to 817 s.

As for `O=C(O)/C=C/C(=O)Nc1cccc2cccnc12`, the RP-LC retention time worked out at 751 s.

On to `COc1ccc(CNC(=O)c2ccc3c(=O)n(-c4ccc(F)cc4)c(N4CCCC4)nc3c2)cc1`, for which the RP-LC retention time was found to be 852 s.

Compound `Cc1cc(Cl)ccc1NC(=O)CN(C)S(=O)(=O)c1cc(C(=O)N2CCC(C)CC2)n(C)c1` showed an RP-LC retention time of 934 s.

The compound `CCc1cccc(N2C(=O)CN(S(C)(=O)=O)CC2(C)C(=O)NCc2ccc(Cl)cc2)c1` (centres undefined) returned an RP-LC retention time of 903 s.

`COc1ccc(C)cc1NC(=O)N1CCCC1c1cc(C)no1` (centres undefined) returned an RP-LC retention time of 835 s.

The compound `CCCN(CC(=O)N(Cc1ccco1)CC1CCCO1)C(=O)Cc1ccc(F)cc1` (centres undefined) gave an RP-LC retention time of 872 s.

On to `CS(=O)(=O)N[C@H]1C[C@@H]2C[C@H]1CN2C(=O)c1cccc(Cl)c1`, for which the RP-LC retention time was found to be 672 s.

The compound `CN1C(=O)c2cc(C(=O)NCc3ccccc3F)nn2CC1(C)C(=O)NC1CCCCC1` (centres undefined) gave an RP-LC retention time of 785 s.

For `CCC(C)C(NC(=O)CCc1ccc(OC)cc1)C(=O)Nc1nc2ccccc2[nH]1` (centres undefined), the RP-LC retention time was 734 s.

Consider `COc1ccccc1CNC(=O)C1CCCN(c2nn3c(=O)c4c(nc3s2)CCCC4)C1` (centres undefined), for which the RP-LC retention time turned out to be 737 s.

Turning to `C#CCn1cnc2c(oc3ccccc32)c1=O`, the RP-LC retention time amounted to 673 s.

`O=C(CCC1CCN(S(=O)(=O)c2ccccc2F)CC1)NC1CC1` displayed an RP-LC retention time of 752 s.

As for `CC(C)(C)c1ccc(-c2noc(Cn3c(=O)n(-c4cccc(F)c4)c(=O)c4sccc43)n2)cc1`, the RP-LC retention time was found to be 1220 s.

In the case of `Cc1nc2c(ccc3nc(NC(=O)CN4C(=O)c5ccccc5C4=O)sc32)s1`, the RP-LC retention time came to 780 s.

With `COc1cccc(C(=O)N2CCN=C2N2CCCC2)c1OC`, the RP-LC retention time is 614 s.

Regarding `O=C(N[C@H]1C[C@@H]2C[C@H]1CN2C(=O)c1ccccc1Cl)c1ccccc1`, the RP-LC retention time was 757 s.

Regarding `CC(C)C(=O)NCc1cnn(-c2ccc(C(=O)N(C)Cc3ccco3)cc2)c1`, the RP-LC retention time was 696 s.

For the compound `CCN(C(=O)CC(=O)OC)c1nc(-c2ccc(C)cc2)cs1`, the RP-LC retention time came out at 1070 s.

Take `CCn1nc(-c2csc(S(=O)(=O)N3CCCCC3C)c2)ccc1=O` (centres undefined): the RP-LC retention time was determined as 896 s.

For the compound `CCOC(=O)c1c(C)[nH]c(C(=O)N2CCC(CC(=O)NCc3cccc(F)c3)CC2)c1C`, the RP-LC retention time is 779 s.

`Cc1cc(OCC(=O)NCc2ccc(Cl)cc2)nc(N2CCN(c3ccccc3)CC2)n1` gave an RP-LC retention time of 868 s.

For the compound `O=C(Nc1ccccc1)N1CCC(CCNC(=O)C2(c3ccccc3)CC2)CC1`, the RP-LC retention time is 882 s.

`Cc1cc(C)cc(NC(=O)N(C)CC2CCOC2)c1` (centres undefined) yielded an RP-LC retention time of 743 s.

`O=C(NC1CC1)[C@@H]1C[C@H](Oc2ccccc2)CN1C(=O)C1CC=CC1` showed an RP-LC retention time of 755 s.

In turn, `Cc1ccc(C(=O)N2[C@H]3CC[C@@H]2c2cnc(C)nc2C3)cn1` displayed an RP-LC retention time of 562 s.

`O=C(CN1C(=O)c2cccc3cccc(c23)C1=O)NCc1ccc2c(c1)OCO2`: the RP-LC retention time worked out at 747 s.

In turn, `Cc1nnc(NC(=O)c2cn(Cc3cccc(F)c3)nc2OCc2cccc(F)c2)s1` came in with an RP-LC retention time of 935 s.

The compound `COC(=O)c1ccc(Cl)cc1NC(=O)N1CCN(CCn2cnc3cccnc32)CC1` displayed an RP-LC retention time of 663 s.

`Cc1ccc(-c2csc(Cc3nc(-c4ccc5c(c4)OCO5)no3)n2)cc1` yielded an RP-LC retention time of 1210 s.

On to `CCOC(=O)CNC(=O)N1CCN(Cc2nc3cccnc3n2-c2cccc(F)c2)CC1`, for which the RP-LC retention time came to 612 s.

Regarding `Cc1nc(-c2csc(S(=O)(=O)N3CCCC(C(=O)NCCc4ccccc4)C3)c2)no1` (centres undefined), the RP-LC retention time amounted to 901 s.

The compound `O=C(Nc1nnc(C2CC(=O)N(c3ccc(F)cc3)C2)o1)c1ccc(Cl)cc1` (centres undefined) displayed an RP-LC retention time of 771 s.

`COc1ccccc1-c1nc2nccc(-c3ccncc3)n2n1` yielded an RP-LC retention time of 654 s.

Take `COc1ccc(NC(=O)Cn2nc3n(c2=O)CCCCC3)cc1`: the RP-LC retention time was 709 s.

Take `Cc1nc(-c2csc(S(=O)(=O)N3CCC(C(=O)N4c5ccccc5CC4C)CC3)c2)no1` (centres undefined): the RP-LC retention time is 1050 s.

`COC(=O)c1cc(C)nc2c1c(=O)n(Cc1nc(-c3ccc(OC)c(OC)c3)oc1C)c(=O)n2C` returned an RP-LC retention time of 964 s.

Consider `CCCc1noc(-c2ccc(-n3ncc(C(=O)NCC)c3C)nc2)n1`, for which the RP-LC retention time was found to be 808 s.

In the case of `Cc1ccc(-c2cc(NC(=O)Cc3ccsc3)on2)s1`, the RP-LC retention time was determined as 966 s.

On to `CCN1CCN(CCNC(=O)C2CCCN(C(=O)c3[nH]c(C)c(C(=O)OC(C)C)c3C)C2)CC1` (centres undefined), for which the RP-LC retention time amounted to 596 s.

Regarding `COc1ccccc1NC(=O)NCCc1nc2cccnc2n1C1CCCCC1`, the RP-LC retention time was 743 s.

As to `COc1ccc(-c2noc(CN3C(=O)COc4ccc(C)cc43)n2)cc1OC`, the RP-LC retention time was determined as 934 s.

For the compound `COc1ccc(NS(=O)(=O)c2c(C)sc(C)c2-c2cc(C(F)(F)F)on2)cc1OC`, the RP-LC retention time worked out at 1020 s.

As for `Cn1cc(S(=O)(=O)N2CCC(C(=O)NC3CCCC3)CC2)cc1C(=O)N1CCCCC1`, the RP-LC retention time turned out to be 732 s.

On to `CCc1cc(C(=O)NC2CC2)nc2cc(-c3cccs3)nn12`, for which the RP-LC retention time stood at 1010 s.

The compound `CCN1C(=O)C(C)(C(=O)NCc2ccccc2Cl)Oc2cccnc21` (centres undefined) displayed an RP-LC retention time of 890 s.

In turn, `Cc1ccc(Cn2cc(-c3ccncc3)cc2C(=O)NCC2CCCO2)cc1` (centres undefined) registered an RP-LC retention time of 654 s.

As to `CCC(C(=O)NCCCN1CCCCC1)n1nc(C)c2sc3ccccc3c2c1=O` (centres undefined), the RP-LC retention time worked out at 691 s.

In the case of `Cc1ccc(CNS(=O)(=O)c2ccc(-c3nnc(C)o3)o2)o1`, the RP-LC retention time was determined as 737 s.

`Cc1noc(C)c1CC(=O)N1CCCn2ccnc2C1C1CCCC1` (centres undefined) showed an RP-LC retention time of 595 s.

Turning to `COc1cc(OC)cc(C(=O)N2CCC3(C2)C(=O)N(C)c2ccc(OC)cc23)c1` (centres undefined), the RP-LC retention time was 798 s.

For the compound `CCN(CC)S(=O)(=O)c1ccc(-n2cnc(C(=O)NCc3ccc(OC)c(OC)c3)c2)cc1`, the RP-LC retention time came out at 766 s.

`Cn1cnc2c(C(=O)Nc3cccc(Cl)c3)nn(-c3ccccc3)c2c1=O` returned an RP-LC retention time of 945 s.

`Cc1cccc(-c2noc(-c3cccnc3N3CCN(c4ccccc4)CC3)n2)c1` came in with an RP-LC retention time of 1400 s.

Regarding `O=S(=O)(C1CC1)N1CCCCC1c1nncn1Cc1ccccc1` (centres undefined), the RP-LC retention time worked out at 722 s.

`O=C(C1CCN(c2nnc(-n3cccc3)s2)CC1)N1CCN(c2ncccn2)CC1` came in with an RP-LC retention time of 738 s.

The compound `CCCNC(=O)N1CCCC(CCc2nnc(-c3cnccn3)o2)C1` (centres undefined) registered an RP-LC retention time of 647 s.

Consider `CCn1c(=O)c(C)nc2cc(-c3noc(-c4ccc(Br)o4)n3)ccc21`, for which the RP-LC retention time turned out to be 1040 s.

`Cc1ccc(Nc2c(-c3ccc(O)cc3)nc3cccc(C)n23)cc1` came in with an RP-LC retention time of 732 s.

Consider `CCc1nc2c(c(=O)n1CC(=O)NCCC1=CCCCC1)CN(Cc1ccccc1)CC2`, for which the RP-LC retention time was 696 s.

In turn, `Cc1ccc(CN2N=C(C(=O)N3CCCC3)S(=O)(=O)c3ccccc32)cc1` had an RP-LC retention time of 895 s.

In turn, `CCn1c(=O)c2ccn(CC(=O)N3CCCc4ccccc43)c2n(CC)c1=O` yielded an RP-LC retention time of 776 s.
